Measurements as given in the supplement of paper PMC4862054.

What was measured:
Test in all cases: normalised viability (% of control), CellTiter-Blue; higher = more viable cells (about 100 = DMSO control)
Conditions in all cases: incubation time: 72 h
CAL-148 [1] = system: CAL-148
Procedure: (§1)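 DSRT, CellTiter-Blue viability, 72 h incubation. Signal is normalised to DMSO and benzethonium chloride controls. Value is the normalised response at dose 7.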

HDQ-P1 [2] = system: HDQ-P1
Procedure: as §1

DU-4475 [3] = system: DU-4475
Procedure: as §1

CAL-51 [4] = system: CAL-51
Procedure: as §1

CAL-85-1 [5] = system: CAL-85-1
Procedure: as §1

MDA-MB-453 [6] = system: MDA-MB-453
Procedure: as §1

CAL-148 [7] = system: CAL-148; remark: listed apart in the source
Procedure: (§2)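 DSRT, CellTiter-Blue viability, 72 h incubation. Signal is normalised to DMSO and benzethonium chloride controls. Value is the normalised response at dose 6.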

HDQ-P1 [8] = system: HDQ-P1; remark: listed apart in the source
Procedure: as §2

DU-4475 [9] = system: DU-4475; remark: listed apart in the source
Procedure: as §2

CAL-51 [10] = system: CAL-51; remark: listed apart in the source
Procedure: as §2

CAL-85-1 [11] = system: CAL-85-1; remark: listed apart in the source
Procedure: as §2

MDA-MB-453 [12] = system: MDA-MB-453; remark: listed apart in the source
Procedure: as §2

CAL-148 [13] = system: CAL-148; remark: listed apart in the source
Procedure: (§3)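 DSRT, CellTiter-Blue viability, 72 h incubation. Signal is normalised to DMSO and benzethonium chloride controls. Value is the normalised response at dose 8.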

HDQ-P1 [14] = system: HDQ-P1; remark: listed apart in the source
Procedure: as §3

DU-4475 [15] = system: DU-4475; remark: listed apart in the source
Procedure: as §3

CAL-51 [16] = system: CAL-51; remark: listed apart in the source
Procedure: as §3

CAL-85-1 [17] = system: CAL-85-1; remark: listed apart in the source
Procedure: as §3

MDA-MB-453 [18] = system: MDA-MB-453; remark: listed apart in the source
Procedure: as §3

SMILES | normalised viability (CAL-148 [7]) [%] | normalised viability (HDQ-P1 [8]) [%] | normalised viability (DU-4475 [9]) [%] | normalised viability (CAL-51 [10]) [%] | normalised viability (CAL-85-1 [11]) [%] | normalised viability (MDA-MB-453 [12]) [%] | other results
NC(=O)Nc1cc(-c2cccc(F)c2)sc1C(=O)N[C@H]1CCCNC1 [AZD 7762] (100 nM) | – | – | – | – | – | – | normalised viability (CAL-148 [1]): 102%; normalised viability (HDQ-P1 [2]): 96.5%; normalised viability (DU-4475 [3]): 97.4%; normalised viability (CAL-51 [4]): 101%; normalised viability (CAL-85-1 [5]): 89.1%; normalised viability (MDA-MB-453 [6]): 88.5%
C#Cc1cccc(Nc2ncnc3cc(OCCOC)c(OCCOC)cc23)c1 [Erlotinib] (300 nM) | 86.1 | 63.8 | 114 | 96.4 | 73.3 | 86.1 | –
C[C@]12CC[C@@H]3c4ccc(O)cc4C[C@@H](CCCCCCCCC[S+]([O-])CCCC(F)(F)C(F)(F)F)[C@H]3[C@@H]1CC[C@@H]2O (stereo not given in full) [Fulvestrant] (300 nM) | 102 | 74.7 | 92.7 | 111 | 87.8 | 98.8 | –
NC(=O)Nc1cc(-c2cccc(F)c2)sc1C(=O)N[C@H]1CCCNC1 [AZD 7762] (300 nM) | – | – | – | – | – | – | normalised viability (CAL-148 [13]): 96.1%; normalised viability (HDQ-P1 [14]): 76.6%; normalised viability (DU-4475 [15]): 118%; normalised viability (CAL-51 [16]): 94.1%; normalised viability (CAL-85-1 [17]): 45.4%; normalised viability (MDA-MB-453 [18]): 46.8%
CC(=O)Nc1ccc(C(=O)Nc2ccccc2N)cc1 [CI-994] (300 nM) | – | – | – | – | – | – | normalised viability (CAL-148 [13]): 100%; normalised viability (HDQ-P1 [14]): 130%; normalised viability (DU-4475 [15]): 90.5%; normalised viability (CAL-51 [16]): 99.5%; normalised viability (CAL-85-1 [17]): 110%; normalised viability (MDA-MB-453 [18]): 96.1%
NCC(=O)CCC(=O)O [Aminolevulinic acid] (300 nM) | 113 | 90 | 91.8 | 102 | 91.4 | 117 | –
CNCc1ccc(-c2[nH]c3cc(F)cc4c3c2CCNC4=O)cc1 [Rucaparib] (300 nM) | 91.7 | 43.2 | 77.4 | 110 | 92.6 | 108 | –
CCC1=C[C@@H]2CN(C1)Cc1c([nH]c3ccccc13)[C@@](C(=O)OC)(c1cc3c(cc1OC)N(C)[C@H]1[C@@](O)(C(=O)OC)[C@H](OC(C)=O)[C@]4(CC)C=CCN5CC[C@]31[C@@H]54)C2 [Vinorelbine] (300 nM) | 24.5 | 40.5 | 53.9 | 35 | 31.4 | 25.2 | –
NCC(=O)CCC(=O)O [Aminolevulinic acid] (1000 nM) | – | – | – | – | – | – | normalised viability (CAL-148 [1]): 95%; normalised viability (HDQ-P1 [2]): 95.2%; normalised viability (DU-4475 [3]): 95.6%; normalised viability (CAL-51 [4]): 106%; normalised viability (CAL-85-1 [5]): 97.4%; normalised viability (MDA-MB-453 [6]): 90.5%
CCC1(c2ccc(N)cc2)CCC(=O)NC1=O (stereo not given) [Aminoglutethimide] (300 nM) | 104 | 72.9 | 93.4 | 84.8 | 92.9 | 89.6 | –
Cc1ccc(C(=O)Nc2ccc(CN3CCN(C)CC3)c(C(F)(F)F)c2)cc1C#Cc1cnc2cccnn12 [Ponatinib] (30 nM) | 106 | 97 | 81.4 | 86.3 | 90 | 85.3 | –
COc1cc([C@@H]2c3cc4c(cc3[C@@H](O[C@@H]3O[C@@H]5CO[C@@H](C)O[C@H]5[C@H](O)[C@H]3O)[C@H]3COC(=O)[C@H]23)OCO4)cc(OC)c1O [Etoposide] (300 nM) | 59.4 | 77.3 | 45.6 | 59 | 98.9 | 104 | –
Cc1ccc(C(=O)N(CCCN)[C@@H](c2oc3cc(Cl)ccc3c(=O)c2Cc2ccccc2)C(C)C)cc1 (30 nM) | 18.3 | 74 | 24.3 | 26.8 | 33.3 | 24.8 | –
CN[C@@H]1C[C@H]2O[C@@](C)([C@@H]1OC)n1c3ccccc3c3c4c(c5c6ccccc6n2c5c31)C(=O)N[C@H]4O [UCN-01] (300 nM) | 87 | 26.2 | 37.6 | 31.2 | 41.8 | 38.4 | –
CC(C)Cn1cnc2c(N)nc3ccccc3c21 [Imiquimod] (300 nM) | 96.5 | 75.3 | 80.5 | 97.5 | 102 | 103 | –
CC1(C)NC(=O)N(c2ccc([N+](=O)[O-])c(C(F)(F)F)c2)C1=O [Nilutamide] (300 nM) | 98 | 125 | 106 | 102 | 104 | 113 | –
Cn1c(CCCC(=O)O)nc2cc(N(CCCl)CCCl)ccc21 [Bendamustine] (300 nM) | 114 | 61 | 108 | 107 | 94.6 | 96.8 | –
CC(=O)Nc1ccc(C(=O)Nc2ccccc2N)cc1 [CI-994] (100 nM) | – | – | – | – | – | – | normalised viability (CAL-148 [1]): 91.2%; normalised viability (HDQ-P1 [2]): 119%; normalised viability (DU-4475 [3]): 98.7%; normalised viability (CAL-51 [4]): 98.1%; normalised viability (CAL-85-1 [5]): 89.5%; normalised viability (MDA-MB-453 [6]): 92%
CCN(CCCOc1ccc2c(Nc3cc(CC(=O)Nc4cccc(F)c4)[nH]n3)ncnc2c1)CCOP(=O)(O)O [Barasertib] (30 nM) | 23.7 | 46 | 85.7 | 72 | 77.7 | 67.6 | –
CN(C)/N=N/c1[nH]cnc1C(N)=O [Dacarbazine] (300 nM) | 84.3 | 88.8 | 92.7 | 89.4 | 93.4 | 89 | –
